The results in this text go back to PubChem BioAssay (NCI).

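Tested at 5 concentrations; 48 h exposure; 96-well plates; endpoints linearly interpolated, else capped at highest concentration. TGI marks complete inhibition of growth.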 Where a SMILES comes first, the peptide text is derived from it. The star is where a group is joined. OBn = c1ccc(CO*)cc1

Test systems include RPMI-8226 leukemia; SN12C renal; M14 melanoma; MCF7 breast; HOP-62 NSCLC; SF-539 CNS; SNB-75 CNS; TK-10 renal; ACHN renal; SW-620 colon; UACC-257 melanoma; NCI-H23 lung; A549 NSCLC; OVCAR-3 ovarian; SK-MEL-2 melanoma; NCI-H226 lung; K-562 leukemia; RXF 393 renal; A498 renal.
Assay in all cases: NCI tumour cell line growth inhibition, 48 h

On to `Cc1ncc([N+](=O)[O-])n1CCNC(=O)CCn1ccnc1[N+](=O)[O-]`, for which the TGI with RPMI-8226 leukemia, in the assay on SN12C renal, in the assay with M14 melanoma, with MCF7 breast, in the assay on HOP-62 NSCLC and in the assay on SF-539 CNS was more than 100 µM throughout. Also, the TGI in the assay on SNB-75 CNS, in the assay on TK-10 renal, in the assay on ACHN renal, with SW-620 colon, in the assay with UACC-257 melanoma and in the assay on NCI-H23 lung was more than 100 µM in each case. For the same compound, the TGI with A549 NSCLC, with OVCAR-3 ovarian, with SK-MEL-2 melanoma, in the assay on NCI-H226 lung and with K-562 leukemia was more than 100 µM in each case.
Turning to `NC(CCC(=O)OCc1ccccc1)C(=O)NC(CCC(=O)OCc1ccccc1)C(=O)O` (stereo not given) (H-Glu(OBn)-Glu(OBn)-OH; configuration not given here), the TGI with RPMI-8226 leukemia, with SN12C renal, in the assay with M14 melanoma, in the assay on MCF7 breast, in the assay with HOP-62 NSCLC and with SNB-75 CNS was more than 100 µM in each case. Moreover, the TGI in the assay on RXF 393 renal, in the assay on TK-10 renal, in the assay on ACHN renal, in the assay with SW-620 colon, in the assay with NCI-H23 lung and with A549 NSCLC was more than 100 µM in each case. In addition, the TGI with OVCAR-3 ovarian, in the assay with NCI-H226 lung and in the assay with K-562 leukemia was more than 100 µM throughout.
With `COc1ccc(C(=O)N2CCN(c3ccc4[nH]c(=O)oc4c3)CC2)cc1`, the TGI with RPMI-8226 leukemia, with SN12C renal, in the assay with M14 melanoma, in the assay with MCF7 breast, with HOP-62 NSCLC and in the assay with SF-539 CNS was more than 100 µM in each case. Besides, the TGI in the assay on SNB-75 CNS, in the assay on TK-10 renal, in the assay on ACHN renal, in the assay with SW-620 colon, in the assay on UACC-257 melanoma and with NCI-H23 lung was more than 100 µM throughout. The TGI in the assay with A549 NSCLC, in the assay on OVCAR-3 ovarian, in the assay on SK-MEL-2 melanoma and in the assay with NCI-H226 lung was more than 100 µM each time.
Turning to `O=C(/C=C/c1cccs1)c1ccc(C(=O)/C=C/c2cccs2)cc1`, the TGI with SN12C renal, in the assay on M14 melanoma, in the assay with HOP-62 NSCLC, in the assay with SF-539 CNS, in the assay with SNB-75 CNS and in the assay on TK-10 renal was more than 100 µM throughout. Besides, the TGI in the assay with ACHN renal, with SW-620 colon, with UACC-257 melanoma, in the assay with A498 renal, with NCI-H23 lung and in the assay with A549 NSCLC was more than 100 µM in each case. Also, the TGI with OVCAR-3 ovarian and in the assay with NCI-H226 lung was more than 100 µM throughout.
With `CSC(=N)N1N=C2c3ccccc3CC[C@@H]2[C@@H]1c1ccccc1`, the TGI with RPMI-8226 leukemia is 35.5 µM; in the assay with SN12C renal it was 31.2 µM; in the assay with M14 melanoma, 27.4 µM; with HOP-62 NSCLC it was 32.8 µM; in the assay with SF-539 CNS, 27.2 µM; in the assay on RXF 393 renal, 27.7 µM. Moreover, the TGI in the assay on TK-10 renal is 33.5 µM; with ACHN renal it was 50.2 µM; in the assay on SW-620 colon, 29.9 µM; with UACC-257 melanoma it was 35.3 µM; in the assay on A498 renal it was 35.2 µM; in the assay on NCI-H23 lung it was 35.3 µM. In addition, the TGI in the assay with A549 NSCLC was 34.2 µM; with OVCAR-3 ovarian it was 36 µM; in the assay with SK-MEL-2 melanoma, 29.2 µM; in the assay with NCI-H226 lung, 22.6 µM; with K-562 leukemia it was 39.7 µM.
With `C=C1CC(COc2ccc3ccc(=O)oc3c2)(c2ccccc2)OC1=O` (stereo not given), the TGI with RPMI-8226 leukemia came out at 0.434 µM; in the assay with SN12C renal, 8.23 µM; with M14 melanoma it was 2.4 µM; in the assay with MCF7 breast, 2.78 µM; in the assay on HOP-62 NSCLC, 26.9 µM; in the assay on SNB-75 CNS it was 12.2 µM. In addition, the TGI turned out to be 2.99 µM in the assay with TK-10 renal; 3.61 µM with ACHN renal; 1.94 µM in the assay with SW-620 colon; 4.05 µM with UACC-257 melanoma; 3.5 µM in the assay on NCI-H23 lung; 27.8 µM in the assay on A549 NSCLC. Further, the TGI in the assay with OVCAR-3 ovarian turned out to be 3.36 µM; in the assay on SK-MEL-2 melanoma, 4.18 µM; in the assay on NCI-H226 lung it was 12.4 µM; in the assay with K-562 leukemia it was 2.45 µM.
In the case of `CN(C)CCN1C(=O)c2ccccc2C1(O)c1ccc(Cl)cc1` (stereo not given), the TGI with RPMI-8226 leukemia, in the assay on SN12C renal, in the assay with M14 melanoma, in the assay on MCF7 breast, in the assay with HOP-62 NSCLC and in the assay on SNB-75 CNS was more than 100 µM in each case. Also, the TGI in the assay with RXF 393 renal is 77.5 µM; in the assay on TK-10 renal, more than 100 µM; in the assay on ACHN renal, more than 100 µM; in the assay on SW-620 colon it was more than 100 µM; with UACC-257 melanoma, 63.9 µM; with NCI-H23 lung, more than 100 µM. Moreover, the TGI in the assay with A549 NSCLC, with OVCAR-3 ovarian, with NCI-H226 lung and in the assay on K-562 leukemia was more than 100 µM throughout.
On to `C(/C=N/NC1=NCCCN1)=N\NC1=NCCCN1`, for which the TGI in the assay with SN12C renal, in the assay on M14 melanoma, with MCF7 breast, in the assay on HOP-62 NSCLC, in the assay with SF-539 CNS and in the assay with SNB-75 CNS was more than 100 µM in each case. The TGI with ACHN renal, in the assay on SW-620 colon, with UACC-257 melanoma, with NCI-H23 lung, in the assay with A549 NSCLC and in the assay with OVCAR-3 ovarian was more than 100 µM each time. Also, the TGI with NCI-H226 lung and with K-562 leukemia was more than 100 µM in each case.
